From patent US6933308B2 (Bristol-Myers Squibb Company, priority 2002, dated 2005)

System: KCNQ channels
Assay: Thallium flux assay for KCNQ channel openers
Type: cell-based
Details: HEK-293 cells stably transfected with a KCNQ family member; for Min conc. response: minimal active concentration: lowest concentration giving signal >= 4 SD of negative controls; for EC50: thallium flux, 10 point concentration series
Description: Thallium Flux Assay for KCNQ Channel Openers.
The thallium assay is a modification of that published by Weaver and is referenced in its entirety (Weaver, C. D. WO 02/31508, 2002).
Approximately 20,000 cells/well of an HEK-293 cell line stably transfected with one of the members of the KCNQ family were plated into clear-bottom, black-walled, poly-D-lysine coated, 384 well assay plates in 20 μl/well of low chloride plating medium. Low chloride plating medium was composed of the following: sodium gluconate, 109 mM; potassium gluconate, 5.4 mM; hemi-calcium gluconate, 3.6 mM; magnesium sulfate, 0.8 mM; sodium bicarbonate, 26.2 mM; sodium phosphate monobasic, 1.2 mM; glutamine, 2 mM; glucose, 5 mM; 4-(2-hydroxyethyl)-1-piperazineethanesulfonic acid (HEPES) (pH 7.3) 10 mM, MEM vitamin solution (10× concentration of vitamins, Gibco/LifeTechnologies 11120-052) and MEM amino acid solution (1× concentration of amino acids, Gibco/LifeTechnologies 11130-051).
Following overnight incubation in a 5% CO2 incubator at 37° C., the cells in the plates were loaded with 20 μl/well of a dye loading solution containing the commercially available thallium-sensitive fluorescent dye BTC-AM, the acetomethoxy ester of BTC (see U.S. Pat. No. 5,501,980) (2 μM) and pluronic acid F-127 (Molecular Probes P 6867) (0.02% w/v) in chloride free assay buffer. Chloride free assay buffer was composed of the following: sodium gluconate, 140 mM; potassium gluconate, 2.5 mM; hemi-calcium gluconate, 6 mM; hemi-magnesium gluconate, 2 mM; glucose, 5 mM; HEPES (pH 7.3), 10 mM.
Following incubation in the dye loading solution for from 45-90 min at room temperature, the dye loading solution was removed by aspiration and replaced with 40 μl/well of chloride free assay buffer.
Prior to addition to cell plates, test compound and standard compounds were dissolved in DMSO to 3 mM concentration. Compounds were then diluted from the 3 mM stock to 100-fold over the final assay concentration in DMSO. Finally, compounds in DMSO were diluted from 100-fold over the final assay concentration to 5-fold over the final assay concentration in chloride free assay buffer.
Ten μl/well of compounds at 5-fold over the final assay concentration were then added to the cell plates. This represents a 1:5 dilution, yielding the final test concentration. The wells used for test compounds were A1-P20. Wells A21-P22 contained a standard opener and a maximally efficacious concentration (positive control). Wells A23-P24 contained chloride free assay buffer containing 1% DMSO (negative control).
Following addition of test compounds, the plates were loaded onto the Molecular Devices FLIPR. The 488 nm line of the argon laser was used to excite the BTC and the emission filter was a 540(+/−30) nm. Images were collected at 1 Hz. Ten seconds of baseline were collected and then the FLIPR was used to add 13 μl/well of a stimulus buffer composed of 7.5 mM Tl2SO4 in chloride free assay buffer. Images were collected for an additional 60 seconds.
For data analysis, the amplitude of the average of the negative controls was subtracted from all wells. The amplitudes of the test compounds were then compared to the value of four standard deviations of the negative control wells. The lowest concentration of a test compound sufficient to generate a signal amplitude greater than or equal to four standard deviations from the amplitude of the negative controls was defined as the minimal active concentration.
For generating EC50 values, compounds were serially diluted in 1:3 volume increments to produce a 10 point concentration series. EC50 values were calculated by fitting the resulting amplitudes to a single-site logistic equation. EC50 was defined as the concentration of test compound required to yield 50% of the maximal response. Maximal response (Maximal opening) was the largest signal amplitude divided by the negative control amplitude generated by any concentration of a test compound. […]

| EC50 | SMILES | Min conc. response |
| --- | --- | --- |
| 1 to 20 µM | CC(NC(=O)c1sc(CCN2CCCC2)nc1C(F)(F)F)c1cccc(N(C)C)c1 (centres unmarked) [Example 9, N-[1-[3-(dimethylamino)phenyl]ethyl]-2-[2-(1-pyrrolidinyl)ethyl]-4-(trifluoromethyl)-5-thiazolecarboxamide] | 10 µM |
| 1 to 20 µM | CC(NC(=O)c1sc(CCN2CCCC2)nc1C(F)(F)F)c1cccc(C(F)(F)F)c1 (centres unmarked) [Example 10, 2-[2-(1-pyrrolidinyl)ethyl]-4-(trifluoromethyl)-N-[1-[3-(trifluoromethyl)phenyl]ethyl]-5-thiazolecarboxamide] | 30 µM |
| 1 to 20 µM | CC(NC(=O)c1sc(CCN2CCCC2)nc1C(F)(F)F)c1cccc(OC(F)(F)F)c1 (centres unmarked) [Example 13, 2-[2-(1-pyrrolidinyl)ethyl]-4-(trifluoromethyl)-N-[1-[3-(trifluoromethoxy)phenyl]ethyl]-5-thiazolecarboxamide] | 10 µM |
| 1 to 20 µM | CC(NC(=O)c1sc(CCN2CCN(C)CC2)nc1C(F)(F)F)c1cccc(OC(F)(F)F)c1 (centres unmarked) [Example 21, 2-[2-(4-methyl-1-piperazinyl)ethyl]-N-[1-[3-(3-trifluoromethoxy)phenyl]ethyl]-4-(trifluoromethyl)-5-thiazolecarboxamide] | 0.3 µM |
| 0.05 to 1 µM | CC(NC(=O)c1sc(CCN2CCCCC2)nc1C(F)(F)F)c1cccc(OC(F)(F)F)c1 (centres unmarked) [Example 22, 2-[2-(1-piperidinyl)ethyl]-N-[1-[3-(3-trifluoromethoxy)phenyl]ethyl]-4-(trifluoromethyl)-5-thiazolecarboxamide] | 0.3 µM |
| 1 to 20 µM | CC(NC(=O)c1sc(CCN2CCCCC2)nc1C(F)(F)F)c1cccc(N(C)C)c1 (centres unmarked) [Example 23, N-[1-[3-(dimethylamino)phenyl]ethyl]-2-[2-(1-piperidinyl)ethyl]-4-(trifluoromethyl)-5-thiazolecarboxamide] | 0.3 µM |
| 1 to 20 µM | CC(NC(=O)c1sc(CCN2CCCCC2)nc1C(F)(F)F)c1cccc(C(F)(F)F)c1 (centres unmarked) [Example 24, 2-[2-(1-piperidinyl)ethyl]-N-[1-[3-(3-trifluoromethyl)phenyl]ethyl]-4-(trifluoromethyl)-5-thiazolecarboxamide] | 0.3 µM |
| 1 to 20 µM | C[C@H](NC(=O)c1sc(CCN2CCCCC2)nc1C(F)(F)F)c1cccc(N2CCOCC2)c1 [Example 25, N-[1-[3-(4-morpholinyl)phenyl]ethyl]-2-[2-(1-piperidinyl)ethyl]-4-(trifluoromethyl)-5-thiazolecarboxamide] | 3 µM |
| 1 to 20 µM | CC(NC(=O)c1sc(CCN2CCC(O)CC2)nc1C(F)(F)F)c1cccc(OC(F)(F)F)c1 (centres unmarked) [Example 26, 2-[2-(4-hydroxy-1-piperidinyl)ethyl]-4-(trifluoromethyl)-N-[1-[3-(trifluoromethoxy)phenyl]ethyl]-5-thiazolecarboxamide] | 10 µM |
| 1 to 20 µM | CC(NC(=O)c1sc(CCN2CCC(O)CC2)nc1C(F)(F)F)c1cccc(C(F)(F)F)c1 (centres unmarked) [Example 27, 2-[2-(4-hydroxy-1-piperidinyl)ethyl]-4-(trifluoromethyl)-N-[1-[3-(trifluoromethyl)phenyl]ethyl]-5-thiazolecarboxamide] | 30 µM |
| 1 to 20 µM | CCCN(CCc1nc(C(F)(F)F)c(C(=O)NC(C)c2cccc(N(C)C)c2)s1)CC1CC1 (centres unmarked) [Example 29, 2-[2-[(cyclopropylmethyl)propylamino]ethyl]-N-[1-[3-(dimethylamino)phenyl]ethyl]-4-(trifluoromethyl)-5-thiazolecarboxamide] | 3 µM |
| 1 to 20 µM | C[C@H](NC(=O)c1sc(CCN2CCCCC2)nc1C(F)(F)F)c1cccc(-c2cccnc2)c1 [Example 32, 2-[2-(1-piperidinyl)ethyl]-N-[1-[3-(3-pyridinyl)phenyl]ethyl]-4-(trifluoromethyl)-5-thiazolecarboxamide] | 3 µM |

Second part, the compound before the results:

| SMILES | EC50 | Min conc. response |
| --- | --- | --- |
| CC(NC(=O)c1sc(CCN(C)Cc2ccco2)nc1C(F)(F)F)c1cccc(-c2cccnc2)c1 (centres unmarked) [Example 12, 2-[2-[(2-furanylmethyl)methylamino]ethyl]-N-[1-[3-(3-pyridinyl)phenyl]ethyl]-4-(trifluoromethyl)-5-thiazolecarboxamide] | < 0.05 µM | 3 µM |
| CC(NC(=O)c1sc(CCN(C)Cc2ccco2)nc1C(F)(F)F)c1cccc(OC(F)(F)F)c1 (centres unmarked) [Example 14, 2-[2-[(2-furanylmethyl)methylamino]ethyl]-4-(trifluoromethyl)-N-[1-[3-(trifluoromethoxy)phenyl]ethyl]-5-thiazolecarboxamide] | < 0.05 µM | 3 µM |
| CCN(CC)CCc1nc(C(F)(F)F)c(C(=O)NC(C)c2cccc(N(C)C)c2)s1 (centres unmarked) [Example 16, 2-[2-(diethylamino)ethyl]-N-[1-[3-(dimethylamino)phenyl]ethyl]-4-(trifluoromethyl)-5-thiazolecarboxamide] | 1 to 20 µM | 0.3 µM |
| CC(NC(=O)c1sc(CCN(C)Cc2ccncc2)nc1C(F)(F)F)c1cccc(C(F)(F)F)c1 (centres unmarked) [Example 17, 2-[2-[(4-pyridylmethyl)methylamino]ethyl]-4-(trifluoromethyl)-N-[1-[3-(trifluoromethyl)phenyl]ethyl]-5-thiazolecarboxamide] | 1 to 20 µM | 3 µM |
| CC(NC(=O)c1sc(CCN(C)CCN(C)C)nc1C(F)(F)F)c1cccc(OC(F)(F)F)c1 (centres unmarked) [Example 19] | 1 to 20 µM | 3 µM |
| CC(NC(=O)c1sc(CCN(C)CCN(C)C)nc1C(F)(F)F)c1cccc(C(F)(F)F)c1 (centres unmarked) [Example 20] | 1 to 20 µM | 30 µM |
| CCCN(CCc1nc(C(F)(F)F)c(C(=O)NC(C)c2cccc(OC(F)(F)F)c2)s1)CC1CC1 (centres unmarked) [Example 28, 2-[2-[(cyclopropylmethyl)propylamino]ethyl]-N-[1-[3-(trifluoromethoxy)phenyl]ethyl]-4-(trifluoromethyl)-5-thiazolecarboxamide] | < 0.05 µM | 0.3 µM |
| CCCN(CCc1nc(C(F)(F)F)c(C(=O)NC(C)c2cccc(C(F)(F)F)c2)s1)CC1CC1 (centres unmarked) [Example 30, 2-[2-[(cyclopropylmethyl)propylamino]ethyl]-N-[1-[3-(trifluoromethyl)phenyl]ethyl]-4-(trifluoromethyl)-5-thiazolecarboxamide] | < 0.05 µM | 3 µM |
| CCN(CC)CCc1nc(C(F)(F)F)c(C(=O)N[C@@H](C)c2cccc(-c3cccnc3)c2)s1 [Example 31] | 1 to 20 µM | 0.3 µM |
| CCC(CC)NCCc1nc(C(F)(F)F)c(C(=O)NC(C)c2cccc(OC(F)(F)F)c2)s1 (centres unmarked) [Example 33, 2-[2-(3-pentylamino)ethyl]-N-[1-[3-(trifluoromethoxy)phenyl]ethyl]-4-(trifluoromethyl)-5-thiazolecarboxamide] | 1 to 20 µM | – |
| CCC(CC)NCCc1nc(C(F)(F)F)c(C(=O)NC(C)c2cccc(C(F)(F)F)c2)s1 (centres unmarked) [Example 34, 2-[2-(3-pentylamino)ethyl]-N-[1-[3-(trifluoromethyl)phenyl]ethyl]-4-(trifluoromethyl)-5-thiazolecarboxamide] | 1 to 20 µM | 3 µM |
| C[C@H](NC(=O)c1sc(CCNCc2ccco2)nc1C(F)(F)F)c1cccc(-c2cccnc2)c1 [Example 35, 2-[2-[(2-furanylmethyl)amino]ethyl]-N-[1-[3-(3-pyridinyl)phenyl]ethyl]-4-(trifluoromethyl)-5-thiazolecarboxamide] | 1 to 20 µM | 10 µM |
